According to patent publication US11034702B2, “Thienoisoquinolines and their derivatives for the treatment of cancer” (VALORBEC, SOCIÉTÉ EN COMMANDITE, priority 2016, dated 2021):

Experiments:
HeLa cells = assay: Mitotic arrest (percentage of cells in mitosis) in HeLa cells; assay type: cell-based, human
Method: There were more rounded mitotic cells after C75 treatment in comparison to the control. FIG. 1B) is a line graph showing the percentage of HeLa and HFF1 cells in mitosis after treatment with various concentrations of C75 for 8 hours. The bars indicate standard deviation. FIG. 1C) is a series of images showing cells that were fixed and co-stained for tubulin (microtubules) and DAPI (DNA). Treatment of HeLa cells with 300 nM C75 caused the mitotic spindles to be disorganized, while they were not affected in HFF1 cells. […] The scale bar for the cells is 10 μm. FIG. 1D) is a cartoon schematic showing the key features of a metaphase cell.
(§1) FIG. 2A) is a line graph showing the percentage of HCT116 (p53−/−) cells, A549 cells, HeLa cells and H1299 cells in mitosis after treatment with various concentrations of C75 for one population doubling time. All of the cell lines show an increase in the proportion of mitotic cells after treatment with 200 nM C75. The bars indicate standard deviation. […] While the mitotic spindles were not dramatically altered by C75 in HFF1 cells, they were monopolar (as shown) or fragmented in the other cell types. […] The mitotic spindles were more strongly fragmented after C75 treatment in these cells vs. the cells in FIG. 2B). […] While mitotic spindles recovered bipolarity after removing nocodazole, they remained multipolar after removing C75. FIG. 2F) is a series of time-lapse images of a live HeLa cell expressing GFP:tubulin after treatment with C75 as shown in 2D) and 2E). The scale bar for all cells is 10 μm. FIG. 2G) is a schematic showing the putative target for C75. Healthy cells have two centrosomes that separate and form a bipolar spindle, while cancer cells have aberrant centrosomes that cluster to form ‘pseudo’ bipolar spindles, and C75 may target this process and their integrity.
FIG. 3A) is a line graph showing the percentage of mitotic HeLa or HFF1 cells treated with a range of paclitaxel (Taxol™; tubulin-targeting drug) concentrations+/−C75 as indicated. The bars indicate standard deviation. […]

MCF-10A cells = assay: Mitotic spindle phenotype in MCF-10A cells; assay type: cell-based; details: 300 nM, 6-8 hours
Method: as §1, with “Healthy cells have two centrosomes that separate and form a bipolar spindle, while cancer cells have aberrant centrosomes that cluster to form ‘pseudo’ bipolar spindles, and C75 may target this process and their integrity.” left out
(§2) C75 was also tested for efficacy in different cancer cell lines. […] To further assess the role of C75 in affecting centrosomes, HeLa cells were treated with C75 for a short period of time (5 minutes), then C75 was removed and the cells were analyzed for spindle phenotypes (schematic in FIG. 2D). […]

BT-549 cells = assay: Mitotic spindle phenotype in BT-549 cells; assay type: cell-based, human; details: BT-549, 300 nM, 6-8 hours
Method: as §1, with “Healthy cells have two centrosomes that separate and form a bipolar spindle, while cancer cells have aberrant centrosomes that cluster to form ‘pseudo’ bipolar spindles, and C75 may target this process and their integrity.” left out
as §2

[1] = tested on: A549 (lung carcinoma) cells; assay: IC50 (viability) in A549 cells; assay type: cell-based; details: Homo sapiens
Method: (§3) 19 variants with different structural modifications have been made. […] In particular, it is shown that C75 causes death in multiple cancer cells with IC50 values in the 100 nM range, including breast cancers (MCF7, BT549), lung cancer (A549), colorectal cancer (HCT116) in addition to HeLa cells (cervical cancer).

[2] = tested on: MCF-10A (mammary gland fibrocystic disease) non-cancer cells; assay: IC50 (viability) in MCF-10A non-cancer cells; assay type: cell-based; details: Homo sapiens, MCF10A non-cancer cells
Method: as §3

In the case of `COc1ccc(S(=O)(=O)N2Cc3ccccc3-c3sc(Br)cc32)cc1` [Compound C75], the “effect of C75 on selectivity of paclitaxel and nocodazole” value (HeLa cells; HeLa vs. HFF1 cells, percentage of mitotic cells, tubulin drug +/- C75) is reported as “enhances the selectivity”, the “concentration causing mitotic arrest” value (HeLa cells; HeLa, within one population doubling time) is reported as 100 to 200 nM and the “selectivity of mitotic arrest, HeLa vs. HFF1” value (HeLa cells; nanomolar concentrations, 8 hours) is reported as “selectively causes mitotic arrest”. The mitotic spindle phenotype (MCF-10A cells) was “mix of monopolar, bipolar and multipolar spindles”, the mitotic spindle phenotype (BT-549 cells) was “most of the spindles were severely fragmented” and the IC50 [1] was 109 nM. It also gave an IC50 [2] of 309 nM.
